# Measurements published in ChEMBL document CHEMBL4602602, “Structure-activity relationship (SAR) studies of synthetic glycogen synthase kinase-3β inhibitors: A critical review” (Eur J Med Chem, 2019).
# Target: T1, Glycogen synthase kinase-3 beta (Homo sapiens, UniProt P49841)
# Assay: Inhibition of Glycogen synthase kinase-3 beta (unknown origin)
# Conditions: not given
# T1 sequence (P49841 whole entry): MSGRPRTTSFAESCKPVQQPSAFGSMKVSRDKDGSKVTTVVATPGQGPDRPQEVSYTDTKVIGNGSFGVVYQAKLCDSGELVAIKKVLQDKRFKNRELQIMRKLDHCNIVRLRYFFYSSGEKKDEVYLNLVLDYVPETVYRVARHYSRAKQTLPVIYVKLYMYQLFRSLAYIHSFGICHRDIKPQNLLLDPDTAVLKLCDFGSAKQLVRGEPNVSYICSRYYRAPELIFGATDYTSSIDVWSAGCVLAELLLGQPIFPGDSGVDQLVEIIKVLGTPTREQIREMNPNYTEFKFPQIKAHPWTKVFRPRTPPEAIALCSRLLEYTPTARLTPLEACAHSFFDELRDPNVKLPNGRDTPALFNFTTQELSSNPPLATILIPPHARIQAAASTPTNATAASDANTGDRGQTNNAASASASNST
row,SMILES,IC50 [nM]
1,C=CC(=O)Nc1cccc(C2=C(c3cn(C)c4cc(OC)ccc34)C(=O)NC2=O)c1,690
2,Cc1ccc2[nH]nc(C(=O)NCC3CCN(C(=O)Nc4ccccc4)CC3)c2c1,640
3,Fc1ccccc1-n1cc(CSc2nnc(Cn3c(C(F)(F)F)nc4ccccc43)o2)nn1,270
4,COc1ccc(NC(=O)c2ccc(NC3=C(c4ccc(OC)cc4)C(=O)NC3=O)cc2)cc1,90
5,O=C(CSc1nnc(Cn2c(C(F)(F)F)nc3ccccc32)o1)Nc1ccc(F)cc1,200
6,O=C(CSc1nnc(Cn2c(C(F)(F)F)nc3ccccc32)o1)Nc1ccccc1,130
7,FC(F)(F)c1nc2ccccc2n1Cc1nnc(SCc2cn(-c3ccccc3)nn2)o1,320
8,FC(F)(F)c1nc2ccccc2n1Cc1nnc(SCc2cn(-c3cccnc3)nn2)o1,150
9,CC(C)n1cc(C2=C(c3cccc(NC(=O)CF)c3)C(=O)NC2=O)c2cccnc21,17
10,C=CC(=O)Nc1cccc(C2=C(c3cn(C(C)C)c4ncccc34)C(=O)NC2=O)c1,34
11,COc1ccc(C2=C(Nc3ccc(C(=O)Nc4ccccc4)cc3)C(=O)NC2=O)cc1,170
12,COc1ccc(NC(=O)c2ccc(NC3=C(c4ccccc4)C(=O)NC3=O)cc2)cc1,120
13,COc1ccc(C2=C(Nc3ccc(C(=O)Nc4ccc(Cl)cc4)cc3)C(=O)NC2=O)cc1,190
14,CCc1ccc(-n2cc(CSc3nnc(Cn4c(C(F)(F)F)nc5ccccc54)o3)nn2)cc1,390
15,COc1ccc(/C=C/C(O)=C/C(=O)/C=C/c2ccc(OCc3ccccc3)cc2)cc1OC,900
16,C=CC(=O)Nc1cccc(C2=C(c3cn(C)c4cc(F)ccc34)C(=O)NC2=O)c1,199
17,C=CC(=O)Nc1cccc(C2=C(c3cn(C)c4ccc(F)cc34)C(=O)NC2=O)c1,150

# System: not listed separately
# Assay: Activation of GSK-3 in HEK293 cells assessed as induction in beta-catenin-LEF/TCF regulated reporter gene transcription
# Format: cell-based
# Conditions: Homo sapiens
row,SMILES,EC50 [nM]
1,Cn1cc(C2=C(c3ccc(Cl)cc3Cl)C(=O)NC2=O)c2ccccc21 [SB-216763],3600

# System: HEK293
# Assay: Activation of GSK-3 in HEK293 cells assessed as induction in beta-catenin-LEF/TCF regulated reporter gene transcription at 5 uM relative to control
# Format: cell-based
# Conditions: Homo sapiens
row,SMILES,fold change (FC)
1,Cn1cc(C2=C(c3ccc(Cl)cc3Cl)C(=O)NC2=O)c2ccccc21 [SB-216763],2.5

# Target: T1, Glycogen synthase kinase-3 beta
# Assay: Inhibition of full length recombinant His-tagged human Glycogen synthase kinase-3 beta expressed in Baculovirus expression system
# Conditions: not given
row,SMILES,IC50 [nM]
1,NCCCn1cc(C2=C(c3cccc4ccccc34)C(=O)NC2=O)c2cccnc21,31

# Target: T1, Glycogen synthase kinase-3 beta
# Assay: Inhibition of Glycogen synthase kinase-3 beta (unknown origin) after 30 mins by Kinase-Glo assay
# Conditions: not given
row,SMILES,IC50 [nM]
1,CN1C(=O)CC(c2ccccc2)N=C1SCc1cn(-c2ccccc2F)nn1 (stereo not given),122
2,CCc1ccc(-n2cc(CSC3=NC(c4ccccc4)CC(=O)N3C)nn2)cc1 (stereo not given),94
3,COc1ccccc1-n1cc(CSC2=NC(c3ccccc3)CC(=O)N2C)nn1 (stereo not given),1310
4,Cc1ccc(-n2cc(CSC3=NC(c4ccccc4)CC(=O)N3C)nn2)cc1C (stereo not given),82
5,CN1C(=O)CC(c2ccccc2)N=C1SCc1cn(-c2cccc([N+](=O)[O-])c2)nn1 (stereo not given),153
6,CN1C(=O)CC(c2ccccc2)N=C1SCc1cn(-c2ccccc2)nn1 (stereo not given),916
7,CN1C(=O)CC(c2ccccc2)N=C1SCc1cn(-c2ccc(C(C)(C)C)cc2)nn1 (stereo not given),1340

# Target: T1, Glycogen synthase kinase-3 beta
# Assay: Inhibition of Glycogen synthase kinase-3 beta in human SH-SY5Y cells after 2 hrs by ELISA
# Format: cell-based
# Conditions: not given
row,SMILES,IC50 [nM]
1,COc1ccc(-c2cc(=O)c3c(OC)c([C@H]4O[C@H](CO)[C@@H](O)[C@H](O)[C@H]4O)c(OC)cc3o2)cc1OC,239000
2,COc1ccc(-c2cc(=O)c3c(OC)c([C@H]4O[C@H](C(=O)N[C@@H](C)C(F)(F)F)[C@@H](O)[C@H](O)[C@H]4O)c(OC)cc3o2)cc1OC,590
3,COc1ccc(-c2cc(=O)c3c(OC)c([C@H]4O[C@H](C(=O)N[C@H](C)C(F)(F)F)[C@@H](O)[C@H](O)[C@H]4O)c(OC)cc3o2)cc1OC,2300
4,COc1ccc(-c2cc(=O)c3c(OC)c([C@H]4O[C@H](C(=O)O)[C@@H](O)[C@H](O)[C@H]4O)c(OC)cc3o2)cc1OC,237000

# Target: not listed separately
# Assay: Inhibition of full length recombinant His-tagged human Glycogen synthase kinase-3 beta expressed in Baculovirus expression system
# Conditions: not given
row,SMILES,IC50 [nM]
1,O=C1NC(=O)C(c2cn(CCCO)c3ncccc23)=C1c1ccccc1C(F)(F)F,14
2,CN(C)CCCn1cc(C2=C(c3cccc4ccccc34)C(=O)NC2=O)c2cccnc21,140
3,COc1ccccc1C1=C(c2cn(CCCO)c3ncccc23)C(=O)NC1=O,4
4,O=C1NC(=O)C(c2cn(CCCO)c3ncccc23)=C1c1ccccc1Cl,10
